Each structure is given as a SMILES string. pEC50, pIC50, pKi: −log10 of the molar value. Where two headings read alike, the source gives them in different places. Marks after values point to notes of the source that are not given here. A value given as a limit tells only on which side of the number the result lay.

For data set [1], the target named is mouse CB2R (Mus musculus, UniProt P47936). Put plainly: cell-based. It counts as cell-based. Further details: bgal (beta-galactosidase fragment of the PathHunter system, named only in the cell line's name); host or cells: CHO-K1 (CHOK1mCB2_bgal). Here is the method: (§1) Assays were carried out using the PathHunter hCB1_bgal, hCB2_bgal, or mCB2_bgal CHOK1 β-arrestin recruitment assay kit (DiscoveRx, Fremont, CA, USA) as previously described. A total of 5000 cells per well were seeded in 384-well plates (Perkin Elmer, MA, USA) containing 20 μL cell culture medium and incubated for 16–18 h at 37 °C and 5% CO2. Cells were stimulated with 10 μM of each agonist or 11 increasing concentrations and incubated for 90 min at 37 °C and 5% CO2. […] The cells were incubated for 90 min at 37 °C and 5% CO2. Compounds in DMSO stock solutions were added using a HP D300 Digital Dispenser (Tecan, Mannedorf, Switzerland). The final concentration of organic solvent per assay point was ≤ 0.1%. The PathHunter Detection mixture was used, according to the manufacturer’s protocol, to determine the β-galactosidase enzyme activity. Detection mixture, 12 μL per well, was added and the plate was incubated for 1 h in the dark at room temperature. Chemiluminescence, indicated as relative light unit, was measured on an EnVision multilabel plate reader (Perkin Elmer, MA, USA).

The target in data set [2] is T1, human CB1R (Homo sapiens, UniProt P21554).
T1 construct: host or cells: CHO

In data set [3] the target is T2, human CB2R (Homo sapiens, UniProt P34972).
T2 construct: bgal (beta-galactosidase fragment of the PathHunter system, named only in the cell line's name); host or cells: CHO-K1 (CHOK1hCB2_bgal)
Conditions: cited from earlier work; for pEC50: read-out: hCB2R: cAMP EC50.

For data set [4], the target named is CYP2D6 (Homo sapiens, UniProt P10635). Put plainly: Cytochrome P450 inhibition assay, CYP2D6. It counts as in vitro ADME.
For data set [5] the following is noted: cited from earlier work; for Hepatocyte Clearance mouse: mouse hepatocytes, * previously published.
In data set [6] the target is T1, human CB1R. This is another data set of the same source.
The target of data set [7] is CYP3A4 (Homo sapiens, UniProt P08684). Description: Cytochrome P450 inhibition assay, CYP3A4. It counts as in vitro ADME.
For data set [8] the following is noted: mouse, * previously published, cited from earlier work; for T1/2 / Tmax: oral, HU308 5 mg/kg, others 3 mg/kg.
The target of data set [9] is T2, human CB2R. Description: PathHunter β-arrestin recruitment assay, hCB2R. It counts as cell-based. Here is the method:
as §1
On the technique in general: Activated receptors often draw arrestin, which recruitment assays turn into a signal.

For data set [10], the system named is human P-gp. Conditions: human P-gp; * previously published; cited from earlier work.
Data set [11] addresses T2, human CB2R. Particulars: cited from earlier work; for pKi: read-out: hCB2R: Ki.
A short description of data set [12]: Chemical stability (aqueous stability assay ASTA). Particulars: aqueous buffer, 37 °C. It counts as physicochemical. How it is done:
Chemical Stability (= Aqueous Stability Assay ASTA)
ASTA is a fully automated assay to determine the 2 h stability of a molecule in aqueous conditions, over the pH range 1–10. Five different pH values are used and the solutions are heated at 37 °C. A compound is classified unstable if, after 2 h, less than 90% of the initial concentration can be found. Samples are first prepared on incubation plates and shaken initially for 10 min at 37 °C.
Solutions are then transferred to a filter plate (Millipore MSGVN2250, pore size 0.22 µm) and filtrated into V-bottom plates (from ABGene, AB-0800) that are heat-sealed prior to HPLC analysis. The procedure is performed a second time. However, the incubation time at 37 °C for the second plate is increased by 2 h. Samples are taken at time point 0 and 2 h and analyzed by HPLC. […]

The conditions of data set [13]: * previously published; cited from earlier work.
The conditions of data set [14]: human and mouse liver microsomes; underlying data previously published; cited from earlier work. (Liver microsomes are a subcellular fraction often used to study metabolism.)
Where [15] appears, read: relative to 1 µM CP55940, * previously published.
The mark [16] stands for this setting: underlying data previously published.
Where [17] appears, read: read-out: mouse CB2R: beta arrestin EC50.
[18] abbreviates: * previously published; read-out: hCB1R: cAMP EC50; cited from earlier work.
Setting [19] is: pH 1, 2 h, read-out: Chemical Stability in Aqueous Buffer at pH 1 (% remaining after 2 h at 37 °C).
The mark [20] stands for this setting: pH 4, 2 h, read-out: Chemical Stability in Aqueous Buffer at pH 4 (% remaining after 2 h at 37 °C).
Setting [21] is: pH 6.5, 2 h, read-out: Chemical Stability in Aqueous Buffer at pH 6.5 (% remaining after 2 h at 37 °C).
Where [22] appears, read: pH 8, 2 h, read-out: Chemical Stability in Aqueous Buffer at pH 8 (% remaining after 2 h at 37 °C).
Where [23] appears, read: pH 10, 2 h, read-out: Chemical Stability in Aqueous Buffer at pH 10 (% remaining after 2 h at 37 °C).

T1 sequence (P21554 whole entry): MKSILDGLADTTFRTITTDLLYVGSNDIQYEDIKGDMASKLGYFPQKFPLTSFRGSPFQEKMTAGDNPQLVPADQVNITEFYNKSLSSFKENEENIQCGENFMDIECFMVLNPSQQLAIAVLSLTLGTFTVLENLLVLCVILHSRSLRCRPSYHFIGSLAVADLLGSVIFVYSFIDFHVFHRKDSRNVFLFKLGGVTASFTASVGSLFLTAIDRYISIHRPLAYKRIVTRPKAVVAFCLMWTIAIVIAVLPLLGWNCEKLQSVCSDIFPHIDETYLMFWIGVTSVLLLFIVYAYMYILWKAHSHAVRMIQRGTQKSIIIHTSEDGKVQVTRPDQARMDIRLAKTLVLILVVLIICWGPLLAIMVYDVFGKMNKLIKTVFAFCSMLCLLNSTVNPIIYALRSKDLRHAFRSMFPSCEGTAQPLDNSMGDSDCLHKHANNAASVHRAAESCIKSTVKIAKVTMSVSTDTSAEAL
Sequence of CYP3A4 (P08684 whole entry): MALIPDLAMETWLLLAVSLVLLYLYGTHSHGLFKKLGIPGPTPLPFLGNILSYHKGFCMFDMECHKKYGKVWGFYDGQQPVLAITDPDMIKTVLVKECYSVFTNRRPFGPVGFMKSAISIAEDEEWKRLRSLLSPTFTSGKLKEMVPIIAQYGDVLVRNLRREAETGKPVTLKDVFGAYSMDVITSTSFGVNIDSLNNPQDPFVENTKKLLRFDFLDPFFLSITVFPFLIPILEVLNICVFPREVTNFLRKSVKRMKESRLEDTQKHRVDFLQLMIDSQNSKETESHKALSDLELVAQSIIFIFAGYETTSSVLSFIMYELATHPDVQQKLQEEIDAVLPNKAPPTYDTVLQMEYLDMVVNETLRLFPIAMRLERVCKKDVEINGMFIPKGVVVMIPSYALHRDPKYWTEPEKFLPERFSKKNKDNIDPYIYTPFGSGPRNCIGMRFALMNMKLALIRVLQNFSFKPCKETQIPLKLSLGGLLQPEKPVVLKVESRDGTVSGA
Sequence of CYP2D6 (P10635 whole entry): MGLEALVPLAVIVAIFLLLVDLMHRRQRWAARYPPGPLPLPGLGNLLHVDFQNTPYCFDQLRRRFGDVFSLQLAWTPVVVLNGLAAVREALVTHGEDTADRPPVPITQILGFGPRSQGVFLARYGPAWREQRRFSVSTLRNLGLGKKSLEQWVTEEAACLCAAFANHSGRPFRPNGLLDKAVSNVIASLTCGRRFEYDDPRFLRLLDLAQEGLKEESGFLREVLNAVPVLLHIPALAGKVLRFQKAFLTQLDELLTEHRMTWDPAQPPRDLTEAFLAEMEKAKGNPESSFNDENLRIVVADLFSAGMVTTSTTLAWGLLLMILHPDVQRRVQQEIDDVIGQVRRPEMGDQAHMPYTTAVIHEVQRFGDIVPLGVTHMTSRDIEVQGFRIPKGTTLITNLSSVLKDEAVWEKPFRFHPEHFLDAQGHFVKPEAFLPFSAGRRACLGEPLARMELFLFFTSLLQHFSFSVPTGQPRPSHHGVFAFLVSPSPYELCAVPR
T2 sequence (P34972 whole entry, the tested form may be a part): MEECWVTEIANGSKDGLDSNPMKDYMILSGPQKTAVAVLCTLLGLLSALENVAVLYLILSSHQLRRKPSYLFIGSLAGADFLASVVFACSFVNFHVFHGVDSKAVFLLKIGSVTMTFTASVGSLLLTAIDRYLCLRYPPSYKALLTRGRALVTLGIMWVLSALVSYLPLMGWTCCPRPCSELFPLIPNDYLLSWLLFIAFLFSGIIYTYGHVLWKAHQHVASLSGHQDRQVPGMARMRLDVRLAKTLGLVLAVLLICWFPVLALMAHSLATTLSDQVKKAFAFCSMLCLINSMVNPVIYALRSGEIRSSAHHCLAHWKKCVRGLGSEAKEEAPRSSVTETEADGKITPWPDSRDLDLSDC
Sequence of mouse CB2R (P47936 whole entry, the tested form may be a part): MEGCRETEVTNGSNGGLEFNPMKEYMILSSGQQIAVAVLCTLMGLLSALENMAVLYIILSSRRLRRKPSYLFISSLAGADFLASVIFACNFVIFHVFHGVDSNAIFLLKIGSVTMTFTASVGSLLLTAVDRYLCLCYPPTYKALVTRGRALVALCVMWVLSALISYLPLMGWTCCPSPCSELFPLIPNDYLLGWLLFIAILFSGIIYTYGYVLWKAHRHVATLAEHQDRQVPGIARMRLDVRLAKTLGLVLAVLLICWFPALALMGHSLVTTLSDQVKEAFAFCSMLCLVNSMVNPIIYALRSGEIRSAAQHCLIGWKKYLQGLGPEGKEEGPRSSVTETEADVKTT

A word on the pEC50: it is −log10 of the EC50, conventionally taken in molar units. By pIC50 is commonly meant the IC50 on a negative log10 scale, so that one unit is a factor of ten. As a reminder, the Tmax is the time from dosing to the highest level. Regarding `CCCCCCC(C)(C)c1cc(OC)c([C@H]2C=C(CO)[C@H]3C[C@@H]2C3(C)C)c(OC)c1` [HU308, {(1S,4S,5S)-4-[2,6-Dimethoxy-4-(2-methyloctan-2-yl)phenyl]-6,6-dimethylbicyclo[3.1.1]hept-2-en-2-yl}methanol, reference compound], the pEC50 is 6.23 in data set [1], less than 5.00 in data set [2] (read-out: hCB1R: beta arrestin EC50; * previously published; cited from earlier work) and less than 5.00 in data set [6] (read-out: hCB1R: cAMP EC50; * previously published; cited from earlier work). Besides, the “mouse CB2R: beta arrestin efficacy” value in [1] is 76%. Moreover, in [3] (setting [15]), the “hCB2R: cAMP efficacy” value is given as 98%. In data set [3] (setting [16]), the “functional behaviour in hCB2R cAMP assay” value was “full agonists”. The pIC50 in data set [4] and in data set [7] was less than 4.30 each time. Also, the “Hepatocyte Clearance mouse” value in data set [5] is given as 4.7 μL/min/Mio cells. Further, in [8], the T1/2 was 3.3 h. The Tmax in [8] was 30 min.

As a reminder, the pKi is the negative decadic logarithm of the Ki, by convention in mol/L. In general, fraction remaining refers to the share of the starting amount still present when the sample was taken. For `CCCCCCC(C)(C)c1cc(OC)c(C2=C[C@H]3CC[C@]2(CO)C3(C)C)c(OC)c1` [HU910, {(1S,4R)-2-[2,6-dimethoxy-4-(2-methyloctan-2-yl)phenyl]-7,7-dimethylbicyclo[2.2.1]hept-2-en-1-yl}methanol, reference compound], in data set [9], the “hCB1R beta arrestin EC50/hCB2R beta arrestin EC50” value is more than 275. For the same compound, in data set [1], the “hCB2R β-arrestin EC50/mouse CB2R β-arrestin EC50” value came out at 0.5. Also, the “mouse CB2R: beta arrestin efficacy” value in data set [1] worked out at 54%. Also, the pEC50 in data set [1] (setting [17]) is 6.65; in data set [2] (* previously published; read-out: hCB1R: beta arrestin EC50; cited from earlier work), less than 4.52; in data set [3] it was 8.40; in [6] (setting [18]), less than 5.00. In addition, the “functional behaviour in hCB2R cAMP assay” value in data set [3] is “full agonists”. Moreover, in [3], the “hCB2R: cAMP efficacy” value is given as 4, 98 * %. For the same compound, the pIC50 in data set [4] (read-out: IC50 CYP2D6) was less than 4.30; in data set [7] (read-out: IC50 CYP3A4), 4.43. Besides, the “P-glycoprotein-Mediated Efflux Extraction Ratio human” value in data set [10] is 2.2. The “Hepatocyte Clearance mouse” value in data set [5] is listed as 34 μL/min/Mio cells. In addition, the negative-log Ki (pKi) in [11] is 7.37. Besides, the fraction remaining at 2 h is 94% in [12] (setting [19]); 93% in data set [12] (setting [20]); 91% in [12] (setting [21]); 94% in data set [12] (setting [22]); 93% in data set [12] (setting [23]). Also, the T1/2 in [8] was 5.2 h. Moreover, the Tmax in data set [8] was 60 min.

As to `CNC(=O)[C@@H](NC(=O)c1cc(OCC2(C)COC2)c(C2CC2)cn1)C(C)(C)C` [RO6851228, 5-Cyclopropyl-N-[(2S)-3,3-dimethyl-1-(methylamino)-1-oxobutan-2-yl]-4-[(3-methyloxetan-3-yl)methoxy]pyridine-2-carboxamide], in [9], the “functional behaviour in hCB2R β-arrestin assay” value is “inverse agonist”. Moreover, the “hCB2R: beta arrestin efficacy” value in [9] is listed as −18%. Further, the pEC50 in data set [9] (read-out: hCB2R: beta arrestin EC50) is 8.52; in [1] (setting [17]), less than 4.52; in [3] (* previously published), 7.59. Moreover, the “activity in mouse CB2R β-arrestin assay” value in [1] is given as “not active”. In addition, in [13], the “LogD (at pH 7.4)” value was 3.21. Further, the “hCB1R cAMP EC50/hCB2R cAMP EC50” value in [3] (functional selectivity, * previously published) is recorded as >383 *. In data set [3] (setting [15]), the “hCB2R: cAMP efficacy” value is given as −159%. Further, the “functional behaviour in hCB2R cAMP assay” value in [3] (setting [16]) is reported as “inverse agonist”. Further, the pIC50 in data set [4] (read-out: IC50 CYP2D6) and in data set [7] (read-out: IC50 CYP3A4) was less than 4.30 throughout. Further, in [10], the “P-glycoprotein-Mediated Efflux Extraction Ratio human” value is on record as 6.5. Further, the “clearance in human as well as mouse microsomes (class in words)” value in data set [14] is “low to medium clearances”. The “Hepatocyte Clearance mouse” value in [5] is 46 μL/min/Mio cells. Further, the pKi in [11] ([3H]-CP55940 displacement, * previously published) was 7.35. Besides, the “hCB1R Ki/hCB2R Ki” value in data set [11] (binding selectivity, * previously published) was 147 *. The share remaining at 2 h in data set [12] (setting [19]) came to 93%; in data set [12] (setting [20]) it was 100%; in [12] (setting [21]) it was 99%; in data set [12] (setting [22]), 100%; in data set [12] (setting [23]), 100%. Further, in data set [8] (oral 3 mg/kg), the F was 31%. Moreover, the T1/2 in data set [8] is reported as 1.17 h. Moreover, the Tmax in [8] was 15 min.

`CC(C)(C)c1nc(N2CC[C@H](O)C2)c2nnn(Cc3nnnn3C3CC3)c2n1` [RO6871304, (3S)-1-{5-tert-butyl-3-[(1-cyclopropyl-1H-tetrazol-5-yl)methyl]-3H-[1,2, 3]triazolo[4,5-d]pyrimidin-7-yl}pyrrolidin-3-ol]: in [9], the “hCB1R beta arrestin EC50/hCB2R beta arrestin EC50” value is recorded as more than 1429. Further, in data set [1], the “mouse CB2R: beta arrestin efficacy” value is 94%. Also, the pEC50 in data set [1] (setting [17]) was 7.59; in [3] (* previously published), 9.00; in data set [6] (setting [18]), less than 5.00. Also, in data set [13], the “LogD (at pH 7.4)” value is on record as 2.78. Besides, the “hCB2R: cAMP efficacy” value in data set [3] (setting [15]) is on record as 102%. The “functional behaviour in hCB2R cAMP assay” value in [3] (setting [16]) is “full agonists”. Moreover, the pIC50 in data set [4] (read-out: IC50 CYP2D6) and in data set [7] (read-out: IC50 CYP3A4) was less than 4.30 each time. The “clearance in human as well as mouse microsomes (class in words)” value in data set [14] was “low to medium clearances”. In [5], the “Hepatocyte Clearance mouse” value was 140 μL/min/Mio cells. Besides, in [5] (setting [16]), the “clearance in mouse hepatocytes (class in words)” value is recorded as “high”. The amount remaining at 2 h is 100% in data set [12] (setting [19]); 100% in [12] (setting [20]); 100% in data set [12] (setting [21]); 99% in data set [12] (setting [22]); 100% in data set [12] (setting [23]).

Values taken from paper PMC6767236, “Selective Cannabinoid 2 Receptor Agonists as Potential Therapeutic Drugs for the Treatment of Endotoxin-Induced Uveitis” (Molecules, 2019).
